{
  "source": "paper PMC5979327",
  "about": "(International Journal of Molecular Sciences, 2018)",
  "key": {"[1]": {"system": "rats", "assay": "Feeding behavior of rats after repeated subcutaneous administration", "format": "in vivo, rat", "conditions": "3 mg/kg s.c. for 5 days; for amount of consumed food (food intake): versus pre-treatment period", "text": "Finally, compound ADS-003 (1a) was subjected to an in vivo evaluation of its impact on brain neurotransmitter systems. This assessment concerned: • - The effects of the compound on the feeding behavior of rats after its repeated peripheral administration. […] The latter was accomplished by postmortem analyses of the brain tissues of the treated rats.\nAll animal experimental procedures were in accordance with EU directives and local ethical regulations. Male Wistar rats (260–300 g) were used. The animals were maintained under standard laboratory conditions (liquid and food available ad libitum, 12 h light–dark cycle). For feeding behavior examination, the rats were placed individually in metabolic cages (TecniplastGazzada, Buguggiate, Italy) and kept there throughout the entire test. Pharmacotherapy was preceded by a control period of 4 days aimed to determine the basal feed and water consumptions as well as urine excretion. The rats (n = 8 per group) were randomly given the H3R antagonists ADS-003 or Ciproxifan, the latter serving as a reference compound [40]. Control rats were treated with an equivalent volume of physiological saline. The compounds, dissolved in distilled water with DMSO (7%, v/v), were administered subcutaneously at a dose of 3 mg/kg of body mass for 5 consecutive days, always during the morning hours, following the record of feeding parameters. The dose of ADS-003 had been determined on the basis of a thorough characterization in vitro. The recorded volumes of consumed food are expressed in g or ml per 100 g of body weight or in ml per 24 h, respectively. The final results are given as means, with SEM calculated for each 24 h period, computed from a four-day (before treatment) or a five-day (treatment) monitoring"}, "[2]": {"system": "cerebral amine neurotransmitter concentrations", "assay": "Post-mortem brain tissue concentration of histamine, noradrenaline, dopamine and serotonin", "format": "in vivo, rat", "conditions": "rats, 3 mg/kg s.c. for 5 days; for histamine concentration in the hypothalamus: not statistically significant", "description": "(§1) Following the behavioral study, the rats were sacrificed, and their brains were collected. From each brain, the cerebral cortex and hypothalamus were quickly dissected according to the Glowinski and Iversen method. The samples were immediately frozen in liquid nitrogen and kept at −70 °C until assayed.\nThe amine concentrations were expressed as ng/g wet weight (HA) or nmol/g wet weight (DA, NA, 5-HT)."}, "[3]": {"system": "MAO-A", "assay": "Post-mortem cerebral MAO-A activity of treated rats (radioassay)", "format": "in vivo, rat", "conditions": "cerebral cortex, s.c. 3 mg/kg/daily for 5 days, means ± SEM", "description": "as §1\n(§2) Monoamine oxidase A and B (EC 1.4.3.4; MAO A and B) activities were estimated in cerebral homogenates with radioassays, using serotonin (fine conc. 200 μM) and β-phenylethylamine (fine conc. 20 μM), as well as specific inhibitors—clorgyline and deprenyl (0.3 μM each), respectively.\n(§3) The enzyme activities are expressed as pmol/min/mg protein. Protein concentration was analyzed according to Lowry’s method."}, "[4]": {"system": "MAO-B", "assay": "Post-mortem cerebral MAO-B activity of treated rats (radioassay)", "format": "in vivo, rat", "conditions": "cerebral cortex, s.c. 3 mg/kg/daily for 5 days, means ± SEM", "description": "as §1, §2, §3"}, "[5]": {"system": "histamine N-methyltransferase (HNMT)", "assay": "Post-mortem cerebral histamine N-methyltransferase activity of treated rats (radioenzymatic)", "format": "in vivo, rat", "conditions": "s.c. 3 mg/kg/daily for 5 days, means ± SEM; for HMNT activity, CTX: cerebral cortex; for HMNT activity, HTH: hypothalamus"}, "[6]": {"biological_target": "T1, guinea pig H3 receptor (jejunum) (Cavia porcellus, UniProt Q9JI35)", "T1 construct": "Whole jejunum segments (2 cm) were prepared and mounted between two platinum electrodes; from tissue; host or cells: guinea pig jejunum (small intestine)", "T1 sequence (Q9JI35 whole entry)": "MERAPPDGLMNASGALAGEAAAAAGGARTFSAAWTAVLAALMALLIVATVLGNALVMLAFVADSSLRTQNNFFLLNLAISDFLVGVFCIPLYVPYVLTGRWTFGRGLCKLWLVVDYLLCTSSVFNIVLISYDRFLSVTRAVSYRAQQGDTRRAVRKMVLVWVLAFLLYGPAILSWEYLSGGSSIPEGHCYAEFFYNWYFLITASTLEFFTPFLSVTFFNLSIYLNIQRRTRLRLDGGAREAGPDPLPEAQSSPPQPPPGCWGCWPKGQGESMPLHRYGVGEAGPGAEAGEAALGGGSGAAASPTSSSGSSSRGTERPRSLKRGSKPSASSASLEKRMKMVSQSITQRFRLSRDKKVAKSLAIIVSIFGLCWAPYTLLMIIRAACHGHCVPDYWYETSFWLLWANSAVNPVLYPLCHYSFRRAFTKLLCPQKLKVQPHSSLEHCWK", "assay": "H3 antagonistic activity against H3 agonist-induced inhibition of the electrically evoked contraction of the guinea pig jejunum", "format": "biochemical", "conditions": "vs (R)-α-methylhistamine, Schild plot, dihydrogenoxolate salts, read-out: pA2 (sem) (converted)", "description": "All newly synthesized compounds were converted into their dihydrogenoxolates salts and in vitro evaluated as H3 receptor antagonists against H3 agonist-induced inhibition of the electrically evoked contraction of the guinea pig jejunum.\nIn the first step, all the obtained compounds were tested for their H3 antagonistic effects in vitro, following standard methods, using the electrically contracting guinea pig jejunum.\nMale guinea pigs weighing 300–400 g were sacrificed, and a portion of the small intestine, 20–50 cm proximal to the ileocaecal valve (jejunum), was removed and placed in Krebs buffer (composition (mM) NaCl 118; KCl 5.6; MgSO4 1.18; CaCl2 2.5; NaH2PO4 1.28; NaHCO3 25; glucose 5.5; indomethacin (1 × 10^ℒ6mol/L)). Whole jejunum segments (2 cm) were prepared and mounted between two platinum electrodes (4 mm apart) in 20 mL Krebs buffer, continuously gassed with 95% O2:5% CO2, and maintained at 37 °C. the contractions were recorded isotonically under 1.0 g tension with a Hugo Sachs Hebel–Messvorsatz (Tl-2)/HF-modem (Hugo Sachs Elektronik, Hugstetten, Germany) connected to a pen recorder. The equilibration lasted for one hour with washings every 10 min. The muscle segments were then stimulated at a maximum between 15 and 20 Volts, continuously at a frequency of 0.1 Hz for a duration of 0.5 msec, with rectangular wave electrical pulses, delivered by a Grass Stimulator S-88 (Grass Instruments Co., Quincy, MA, USA). […] The antagonists were preincubated for 20 min during the stimulation, before the preparation were challenged with (R)-α-methylhistamine. Antagonist potency was determined by the construction of a Schild plot, using three different concentrations of the antagonist. The potency of an antagonist is expressed by its pA2 value. The pA2 values were compared with those indicating the potency of thioperamide."}, "[7]": {"biological_target": "T2, rat histamine H3 receptor (rH3R) (Rattus norvegicus, UniProt Q9QYN8)", "T2 construct": "expressed in transfected cells; host or cells: HEK293T, transient PEI transfection with pcDNA3-rH3R; crude membranes", "T2 sequence (Q9QYN8 whole entry)": "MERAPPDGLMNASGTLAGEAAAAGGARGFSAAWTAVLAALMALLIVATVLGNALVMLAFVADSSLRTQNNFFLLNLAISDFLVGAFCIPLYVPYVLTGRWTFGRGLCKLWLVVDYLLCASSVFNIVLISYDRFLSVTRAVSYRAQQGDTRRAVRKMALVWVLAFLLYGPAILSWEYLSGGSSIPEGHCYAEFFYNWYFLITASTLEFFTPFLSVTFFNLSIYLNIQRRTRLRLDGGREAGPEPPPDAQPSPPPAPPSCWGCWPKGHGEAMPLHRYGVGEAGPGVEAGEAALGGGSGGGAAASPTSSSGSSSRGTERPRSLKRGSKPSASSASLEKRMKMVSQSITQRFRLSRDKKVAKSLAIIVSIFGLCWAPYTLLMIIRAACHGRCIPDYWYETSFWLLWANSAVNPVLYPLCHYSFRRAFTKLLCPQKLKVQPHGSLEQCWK", "assay": "[3H]-Nα-methylhistamine binding (saturation and displacement) to rat H3R in HEK-293T cell membranes"}, "[8]": {"biological_target": "T3, human histamine H3 receptor (hH3R) (Homo sapiens, UniProt Q9Y5N1)", "T3 construct": "expressed in transfected cells; host or cells: HEK293T, transient PEI transfection with pcDNA3.1-hH3R; crude membranes", "T3 sequence (Q9Y5N1 whole entry)": "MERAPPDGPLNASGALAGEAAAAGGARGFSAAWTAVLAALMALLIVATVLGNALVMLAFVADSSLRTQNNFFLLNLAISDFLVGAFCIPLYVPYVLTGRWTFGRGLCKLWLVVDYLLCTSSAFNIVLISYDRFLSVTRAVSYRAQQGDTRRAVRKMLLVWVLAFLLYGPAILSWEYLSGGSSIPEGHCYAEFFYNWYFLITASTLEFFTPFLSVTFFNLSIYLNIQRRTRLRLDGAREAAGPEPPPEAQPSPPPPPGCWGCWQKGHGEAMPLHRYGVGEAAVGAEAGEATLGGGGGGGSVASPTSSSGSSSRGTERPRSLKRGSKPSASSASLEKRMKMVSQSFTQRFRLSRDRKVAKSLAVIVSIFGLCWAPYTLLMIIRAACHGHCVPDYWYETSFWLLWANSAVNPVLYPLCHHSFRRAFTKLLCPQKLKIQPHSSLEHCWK", "assay": "biochemical", "format": "binding"}, "[9]": {"conditions": "compared with Ciproxifan; cited from earlier work"}, "[10]": {"biological_target": "T4, H1-receptor (Cavia porcellus, UniProt P31389)", "T4 construct": "from tissue; host or cells: guinea pig ileum", "T4 sequence (P31389 whole entry)": "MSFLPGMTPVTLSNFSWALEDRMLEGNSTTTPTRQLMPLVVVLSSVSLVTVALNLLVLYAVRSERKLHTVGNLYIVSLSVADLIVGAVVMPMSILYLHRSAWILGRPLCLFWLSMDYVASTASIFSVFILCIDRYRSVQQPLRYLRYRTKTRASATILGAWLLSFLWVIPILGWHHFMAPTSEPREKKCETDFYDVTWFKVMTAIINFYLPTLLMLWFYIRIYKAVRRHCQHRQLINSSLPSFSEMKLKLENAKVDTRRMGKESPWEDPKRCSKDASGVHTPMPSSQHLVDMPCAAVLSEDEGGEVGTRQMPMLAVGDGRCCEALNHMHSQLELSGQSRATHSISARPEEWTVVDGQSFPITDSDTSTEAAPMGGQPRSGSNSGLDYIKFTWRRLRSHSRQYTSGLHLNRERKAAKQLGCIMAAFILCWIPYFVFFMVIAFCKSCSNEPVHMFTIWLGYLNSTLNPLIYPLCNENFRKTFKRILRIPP", "assay": "H1 antagonistic effects in vitro, guinea pig ileum, histamine as competing agonist", "format": "biochemical", "conditions": "read-out: pA2 (H1 antagonistic activity) (converted)", "experimental": "The pA2 values were calculated according to Arunlakshana and Schild [34]."}},
  "data": [
    {"smiles": "O=C(c1ccc(OCCCc2cnc[nH]2)cc1)C1CC1", "note": "[Ciproxifan, reference compound]", "values": [
      {"measurement": "amount of consumed food (food intake)", "setting": "[1]", "result": "statistically significant reduction"},
      {"measurement": "histamine levels in the cerebral cortex", "setting": "[2]", "result": "no changes"},
      {"measurement": "noradrenaline levels in the cerebral cortex", "setting": "[2]", "result": "enhanced"},
      {"measurement": "histamine concentration in the hypothalamus", "setting": "[2]", "result": "tendency to increase"},
      {"measurement": "MAO-A activity, CTX", "setting": "[3]", "result": "1654 ± 31", "unit": "pmol/min/mg Protein"},
      {"measurement": "MAO-B activity, CTX", "setting": "[4]", "result": "1049 ± 56", "unit": "pmol/min/mg Protein"},
      {"measurement": "HMNT activity, CTX", "setting": "[5]", "result": "46.90 ± 3.59", "unit": "pmol/min/mg Protein"},
      {"measurement": "HMNT activity, HTH", "setting": "[5]", "result": "51.76 ± 5.67", "unit": "pmol/min/mg Protein"}
    ]},
    {"smiles": "CCCN(C)CCCCCOC1CCN(Cc2cc3ccccc3o2)CC1", "note": "[1a]", "values": [
      {"measurement": "Kb", "setting": "[6]", "result": 5.37, "unit": "nM"},
      {"measurement": "Ki", "setting": "[7]", "result": 12.6, "unit": "nM"},
      {"measurement": "Ki", "setting": "[8]", "result": 251, "unit": "nM"},
      {"measurement": "crossing of the blood–brain barrier (suggested by the food intake results)", "setting": "[1]", "result": "crosses the BBB"},
      {"measurement": "amount of consumed food (food intake)", "setting": "[1]", "result": "statistically significant reduction"},
      {"measurement": "histamine levels in the cerebral cortex", "setting": "[2]", "result": "no changes"},
      {"measurement": "noradrenaline levels in the cerebral cortex", "setting": "[2]", "result": "enhanced"},
      {"measurement": "histamine concentration in the hypothalamus", "setting": "[2]", "result": "tendency to increase"},
      {"measurement": "MAO-A activity, CTX", "setting": "[3]", "result": "1536 ± 50", "unit": "pmol/min/mg Protein"},
      {"measurement": "MAO-B activity, CTX", "setting": "[4]", "result": "1065 ± 48", "unit": "pmol/min/mg Protein"},
      {"measurement": "HMNT activity, CTX", "setting": "[5]", "result": "44.41 ± 1.06", "unit": "pmol/min/mg Protein"},
      {"measurement": "HMNT activity, HTH", "setting": "[5]", "result": "41.09 ± 0.80", "unit": "pmol/min/mg Protein"}
    ]},
    {"smiles": "CCCN(C)CCCCCOCCCN(C)CCCc1ccccc1", "note": "[2f, N-Methyl-5-(3-(methyl(3-phenylpropyl)amino)propoxy)-N-propylpentan-1-amine]", "values": [
      {"measurement": "Kb", "setting": "[6]", "result": 162, "unit": "nM"}
    ]},
    {"smiles": "CCCN(C)CCCCCOCCCN(C)CCc1cc2ccccc2o1", "note": "[2b, 5-{3-{[2-(Benzofuran-2-yl)ethyl](methyl)amino}propoxy}-N-methyl-N-propylpentan-1-amine]", "values": [
      {"measurement": "Kb", "setting": "[6]", "result": 479, "unit": "nM"}
    ]},
    {"smiles": "CCCN(C)CCCCCOC1CCN(CCCc2cc3ccccc3o2)CC1", "note": "[1c, 5-{{1-[3-(1-Benzofuran-2-yl)propyl]piperidin-4-yl}oxy}-N-methyl-N-propylpentan-1-amine]", "values": [
      {"measurement": "Kb", "setting": "[6]", "result": 77.6, "unit": "nM"}
    ]},
    {"smiles": "CCCN(C)CCCCCOCCCN(C)CCc1ccccc1", "note": "[2e, N-Methyl-5-{3-[methyl(phenethyl)amino]propoxy}-N-propylpentan-1-amine]", "values": [
      {"measurement": "Kb", "setting": "[6]", "result": 191, "unit": "nM"}
    ]},
    {"smiles": "CCCN(C)CCCCCOC1CCN(CCc2ccccc2)CC1", "note": "[1e, N-Methyl-5-[(1-phenethylpiperidin-4-yl)oxy]-N-propylpentan-1-amine]", "values": [
      {"measurement": "Kb", "setting": "[6]", "result": 214, "unit": "nM"}
    ]},
    {"smiles": "S=C(NC1CCCCC1)N1CCC(c2cnc[nH]2)CC1", "note": "[Thioperamide]", "values": [
      {"measurement": "bioavailability / brain penetration", "setting": "[9]", "result": "lower bioavailability"}
    ]},
    {"smiles": "CCCN(C)CCCCCOC1CCN(CCCc2ccccc2)CC1", "note": "[1f, N-Methyl-5-{[1-(3-phenylpropyl)piperidin-4-yl]oxy}-N-propylpentan-1-amine]", "values": [
      {"measurement": "Kb", "setting": "[6]", "result": 30.9, "unit": "nM"},
      {"measurement": "Kb", "setting": "[10]", "result": "> 100000", "unit": "nM"}
    ]},
    {"smiles": "CCCN(C)CCCCCOCCCN(C)CCCc1cc2ccccc2o1", "note": "[2c, 5-{3-{[3-(Benzofuran-2-yl)propyl](methyl)amino}propoxy}-N-methyl-N-propylpentan-1-amine]", "values": [
      {"measurement": "Kb", "setting": "[6]", "result": 427, "unit": "nM"}
    ]},
    {"smiles": "CNCCc1cnc[nH]1", "note": "[[^3H]-N^α-MH, [^3H]-N^α-methylhistamine, reference compound]", "values": [
      {"measurement": "Kd", "setting": "[7]; rH3R, HEK-293T membranes", "result": "2.72 ± 0.34", "unit": "nM"},
      {"measurement": "Kd", "setting": "[8]; read-out: KD (saturation binding)", "result": "0.9 ± 0.08", "unit": "nM"}
    ]},
    {"smiles": "CCCN(C)CCCCCOC1CCN(CCc2cc3ccccc3o2)CC1", "note": "[1b, 5-{{1-[2-(1-Benzofuran-2-yl)ethyl]piperidin-4-yl}oxy}-N-methyl-N-propylpentan-1-amine]", "values": [
      {"measurement": "Kb", "setting": "[6]", "result": 55, "unit": "nM"},
      {"measurement": "Kb", "setting": "[10]", "result": "> 100000", "unit": "nM"}
    ]}
  ]
}
